Test results: the supplement of paper PMC10733146

Tests used:
Assay in all cases: viability relative to DMSO control (fraction); higher = less drug effect (more viable cells)
Conditions in all cases: 48 h
Quizartinib = compound: CC(C)(C)c1cc(NC(=O)Nc2ccc(-c3cn4c(n3)sc3cc(OCCN5CCOCC5)ccc34)cc2)no1 [Quizartinib]
Outline: (§1)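 Using 384-well plates with compounds already plated at five concentrations, one well per concentration, 4 × 10^4 primary mononuclear tumour cells were added per well. Cells were Ficoll-isolated from blood or bone marrow or came from processed lymph node, fresh or cryopreserved. They were kept for 48 h at 37 °C and 5% CO2 in RPMI-1640 supplemented with penicillin/streptomycin, L-glutamine and human serum, and viability was read as CellTiter-Glo luminescence relative to the median of 16 inner DMSO wells.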

Cladribine = compound: Nc1nc(Cl)nc2c1ncn2[C@H]1C[C@H](O)[C@@H](CO)O1 [Cladribine]
Outline: as §1

BI6727 = compound: CC[C@@H]1C(=O)N(C)c2cnc(Nc3ccc(C(=O)N[C@H]4CC[C@H](N5CCN(CC6CC6)CC5)CC4)cc3OC)nc2N1C(C)C [BI6727]
Outline: as §1

EPZ-5676 = compound: CC(C)N(C[C@H]1O[C@@H](n2cnc3c(N)ncnc32)[C@H](O)[C@@H]1O)[C@H]1C[C@@H](CCc2nc3cc(C(C)(C)C)ccc3[nH]2)C1 [EPZ-5676]
Outline: as §1

Tozasertib = compound: Cc1cc(Nc2cc(N3CCN(C)CC3)nc(Sc3ccc(NC(=O)C4CC4)cc3)n2)n[nH]1 [Tozasertib]
Outline: as §1

Carfilzomib = compound: CC(C)C[C@H](NC(=O)[C@H](CCc1ccccc1)NC(=O)CN1CCOCC1)C(=O)N[C@@H](Cc1ccccc1)C(=O)N[C@@H](CC(C)C)C(=O)[C@@]1(C)CO1 [Carfilzomib]
Outline: as §1

8-Azaguanin = compound: Nc1nc2n[nH]nc2c(=O)[nH]1 [8-Azaguanin]
Outline: as §1

Obatoclax mesylate = compound: COC1=CC(c2cc3ccccc3[nH]2)=N/C1=C\c1[nH]c(C)cc1C [Obatoclax mesylate]
Outline: as §1

Pentostatin = compound: OC[C@H]1O[C@@H](n2cnc3c2N=CNC[C@H]3O)C[C@@H]1O [Pentostatin]
Outline: as §1

AG-221 (Enasidinib) = compound: CC(C)(O)CNc1nc(Nc2ccnc(C(F)(F)F)c2)nc(-c2cccc(C(F)(F)F)n2)n1 [AG-221 (Enasidinib)]
Outline: as §1

ONO-4059 = compound: CC#CC(=O)N1CC[C@@H](n2c(=O)n(-c3ccc(Oc4ccccc4)cc3)c3c(N)ncnc32)C1 [ONO-4059]
Outline: as §1

TMP269 = compound: O=C(NCC1(c2nc(-c3ccccc3)cs2)CCOCC1)c1cccc(-c2noc(C(F)(F)F)n2)c1 [TMP269]
Outline: as §1

MLN-120B = compound: COc1c(Cl)cc2c([nH]c3cnccc32)c1NC(=O)c1cccnc1C [MLN-120B]
Outline: as §1

Vincristine = compound: CC[C@]1(O)C[C@H]2CN(CCc3c([nH]c4ccccc34)[C@@](C(=O)OC)(c3cc4c(cc3OC)N(C=O)[C@H]3[C@@](O)(C(=O)OC)[C@H](OC(C)=O)[C@]5(CC)C=CCN6CC[C@]43[C@@H]65)C2)C1 [Vincristine]
Outline: as §1

primary ALL patient cells (S088)
viability (Quizartinib; 0.016 µM): 0.809
viability (Quizartinib; 0.08 µM): 0.765
viability (Quizartinib; 0.4 µM): 0.775
viability (Quizartinib; 2 µM): 0.741
viability (Quizartinib; 10 µM): 0.676
viability (Cladribine; 0.024 µM): 0.397
viability (Cladribine; 0.12 µM): 0.178
viability (Cladribine; 0.6 µM): 0.122
viability (Cladribine; 3 µM): 0.0996
viability (Cladribine; 15 µM): 0.0732
viability (BI6727; 0.024 µM): 0.796
viability (BI6727; 0.12 µM): 0.833
viability (BI6727; 0.6 µM): 0.634
viability (BI6727; 3 µM): 0.358
viability (BI6727; 15 µM): 0.078
viability (EPZ-5676; 0.0032 µM): 0.74
viability (EPZ-5676; 0.016 µM): 0.922
viability (EPZ-5676; 0.08 µM): 0.812
viability (EPZ-5676; 0.4 µM): 0.874
viability (EPZ-5676; 2 µM): 0.917
viability (Tozasertib; 0.024 µM): 0.727
viability (Tozasertib; 0.12 µM): 0.653
viability (Tozasertib; 0.6 µM): 0.501
viability (Tozasertib; 3 µM): 0.382
viability (Tozasertib; 15 µM): 0.286
viability (Carfilzomib; 0.00016 µM): 0.844
viability (Carfilzomib; 0.0008 µM): 0.348
viability (Carfilzomib; 0.004 µM): 0.0398
viability (Carfilzomib; 0.02 µM): 0.0238
viability (Carfilzomib; 0.1 µM): 0.0318
viability (8-Azaguanin; 0.032 µM): 0.783
viability (8-Azaguanin; 0.16 µM): 0.765
viability (8-Azaguanin; 0.8 µM): 0.346
viability (8-Azaguanin; 4 µM): 0.269
viability (8-Azaguanin; 20 µM): 0.174
viability (Obatoclax mesylate; 0.024 µM): 0.977
viability (Obatoclax mesylate; 0.12 µM): 0.804
viability (Obatoclax mesylate; 0.6 µM): 0.582
viability (Obatoclax mesylate; 3 µM): 0.262
viability (Obatoclax mesylate; 15 µM): 0.0738
viability (Pentostatin; 0.03 µM): 0.809
viability (Pentostatin; 0.15 µM): 0.725
viability (Pentostatin; 0.75 µM): 0.786
viability (Pentostatin; 3.75 µM): 0.669
viability (Pentostatin; 18.76 µM): 0.706
viability (AG-221 (Enasidinib); 0.024 µM): 0.115
viability (AG-221 (Enasidinib); 0.12 µM): 0.151
viability (AG-221 (Enasidinib); 0.6 µM): 0.435
viability (AG-221 (Enasidinib); 3 µM): 0.457
viability (AG-221 (Enasidinib); 15 µM): 0.661
viability (ONO-4059; 0.0016 µM): 1.03
viability (ONO-4059; 0.008 µM): 1.14
viability (ONO-4059; 0.04 µM): 1.07
viability (ONO-4059; 0.2 µM): 1.04
viability (ONO-4059; 1 µM): 1.02
viability (TMP269; 0.024 µM): 0.709
viability (TMP269; 0.12 µM): 0.619
viability (TMP269; 0.6 µM): 0.674
viability (TMP269; 3 µM): 0.674
viability (TMP269; 15 µM): 0.729
viability (MLN-120B; 0.024 µM): 0.199
viability (MLN-120B; 0.12 µM): 0.231
viability (MLN-120B; 0.6 µM): 0.233
viability (MLN-120B; 3 µM): 0.248
viability (MLN-120B; 15 µM): 0.24
viability (Vincristine; 0.016 µM): 0.689
viability (Vincristine; 0.08 µM): 0.494
viability (Vincristine; 0.4 µM): 0.335
viability (Vincristine; 2 µM): 0.302
viability (Vincristine; 10 µM): 0.256

primary FL patient cells (S022)
viability (Quizartinib; 0.016 µM): 1.01
viability (Quizartinib; 0.08 µM): 1.04
viability (Quizartinib; 0.4 µM): 1.01
viability (Quizartinib; 2 µM): 1.21
viability (Quizartinib; 10 µM): 0.998
viability (Cladribine; 0.024 µM): 0.814
viability (Cladribine; 0.12 µM): 0.827
viability (Cladribine; 0.6 µM): 0.55
viability (Cladribine; 3 µM): 0.447
viability (Cladribine; 15 µM): 0.333
viability (BI6727; 0.024 µM): 1.04
viability (BI6727; 0.12 µM): 0.901
viability (BI6727; 0.6 µM): 0.959
viability (BI6727; 3 µM): 0.785
viability (BI6727; 15 µM): 0.178
viability (EPZ-5676; 0.0032 µM): 0.873
viability (EPZ-5676; 0.016 µM): 1
viability (EPZ-5676; 0.08 µM): 0.884
viability (EPZ-5676; 0.4 µM): 0.856
viability (EPZ-5676; 2 µM): 0.96
viability (Tozasertib; 0.024 µM): 0.996
viability (Tozasertib; 0.12 µM): 0.882
viability (Tozasertib; 0.6 µM): 0.949
viability (Tozasertib; 3 µM): 0.807
viability (Tozasertib; 15 µM): 0.814
viability (Carfilzomib; 0.00016 µM): 0.875
viability (Carfilzomib; 0.0008 µM): 0.117
viability (Carfilzomib; 0.004 µM): 0.0482
viability (Carfilzomib; 0.02 µM): 0.0455
viability (Carfilzomib; 0.1 µM): 0.0491
viability (8-Azaguanin; 0.032 µM): 0.987
viability (8-Azaguanin; 0.16 µM): 1.01
viability (8-Azaguanin; 0.8 µM): 0.843
viability (8-Azaguanin; 4 µM): 0.582
viability (8-Azaguanin; 20 µM): 0.363
viability (Obatoclax mesylate; 0.024 µM): 1.04
viability (Obatoclax mesylate; 0.12 µM): 0.971
viability (Obatoclax mesylate; 0.6 µM): 0.71
viability (Obatoclax mesylate; 3 µM): 0.486
viability (Obatoclax mesylate; 15 µM): 0.109
viability (Pentostatin; 0.03 µM): 1.1
viability (Pentostatin; 0.15 µM): 0.939
viability (Pentostatin; 0.75 µM): 1.13
viability (Pentostatin; 3.75 µM): 0.877
viability (Pentostatin; 18.76 µM): 1.02
viability (AG-221 (Enasidinib); 0.024 µM): 0.807
viability (AG-221 (Enasidinib); 0.12 µM): 0.799
viability (AG-221 (Enasidinib); 0.6 µM): 0.781
viability (AG-221 (Enasidinib); 3 µM): 0.67
viability (AG-221 (Enasidinib); 15 µM): 0.687
viability (ONO-4059; 0.0016 µM): 1.05
viability (ONO-4059; 0.008 µM): 1.02
viability (ONO-4059; 0.04 µM): 1.06
viability (ONO-4059; 0.2 µM): 0.985
viability (ONO-4059; 1 µM): 1.13
viability (TMP269; 0.024 µM): 1.22
viability (TMP269; 0.12 µM): 0.977
viability (TMP269; 0.6 µM): 1.2
viability (TMP269; 3 µM): 0.958
viability (TMP269; 15 µM): 0.915
viability (MLN-120B; 0.024 µM): 0.946
viability (MLN-120B; 0.12 µM): 0.96
viability (MLN-120B; 0.6 µM): 0.916
viability (MLN-120B; 3 µM): 0.896
viability (MLN-120B; 15 µM): 0.758
viability (Vincristine; 0.016 µM): 0.479
viability (Vincristine; 0.08 µM): 0.448
viability (Vincristine; 0.4 µM): 0.377
viability (Vincristine; 2 µM): 0.349
viability (Vincristine; 10 µM): 0.255
